Laboratory results as given in patent US20250289789A1, “REVERSIBLE LYSINE COVALENT MODIFIERS OF CDK2 AND USES THEREOF” (Terremoto Biosciences, Inc., priority 2023, published 2025).
Where two headings read alike, the source gives them in different places.

Key:
Type in all cases: cell-based
[1] = biological target: T1, CDK1-NanoLuc fusion with CCNB1 in 293T or 293 cells (Homo sapiens, UniProt P06493); experiment: NanoBRET Target Engagement (TE) Intracellular Kinase Assay, CDK1/CCNB1; settings: NanoBRET TE intracellular kinase assay, 2-hour incubation, read-out: NanoBRET-CDK1/B1 IC50
T1 construct: host or cells: 293T (ATCC CRL-3216) or 293 (ATCC CRL-1573)
Outline: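 293T or 293 cells co-transfected with CDK1-NanoLuc and CCNB1 vectors, incubated 24 h, then exposed to NanoBRET Tracer K-10 plus compound for 2 h at 37° C. BRET ratio (610/450 nm) normalized to DMSO; IC50 from four-parameter logistic fit.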

[2] = biological target: T2, CDK2-NanoLuc fusion with CCNE1 in 293T or 293 cells (Homo sapiens, UniProt P24941); experiment: NanoBRET Target Engagement (TE) Intracellular Kinase Assay, CDK2/CCNE1; settings: 2-hour incubation
T2 construct: host or cells: 293T (ATCC CRL-3216) or 293 (ATCC CRL-1573)

[3] = biological target: T3, CDK4-NanoLuc fusion with CCND1 in 293T or 293 cells (Homo sapiens, UniProt P11802); experiment: NanoBRET Target Engagement (TE) Intracellular Kinase Assay, CDK4/CCND1; settings: NanoBRET TE intracellular kinase assay, 2-hour incubation, read-out: NanoBRET-CDK4/D1 IC50
T3 construct: host or cells: 293T (ATCC CRL-3216) or 293 (ATCC CRL-1573)

[4] = system: Phospho-Rb Ser807/811 in OVCAR3 cells; experiment: OVCAR3 Phospho-Rb Ser807/811 HTRF assay; settings: Homo sapiens, read-out: pRb-OVCAR3 IC50
Procedure: Cells were trypsinized and resuspended in 1 mM hydroxyurea (Sigma; H8627), 90% RPMI and 10% fetal bovine serum. […] Dose response curve normalized to DMSO control was plotted using four-parameter logistic model for IC50 calculation.

[5] = NanoBRET TE intracellular kinase assay, read-out: NanoBRET-CDK2/E1 IC50
[6] = OVCAR-3, 1 h, OVCAR3 cells, Phospho-Rb Ser807/811 HTRF, 1 hour incubation
[7] = NanoBRET-CDK2/E1 IC50, NanoBRET TE intracellular kinase assay
[8] = OVCAR-3, OVCAR3 cells, Phospho-Rb Ser807/811 HTRF, 1 hour incubation

T3 sequence (P11802 whole entry, the tested form may be a part): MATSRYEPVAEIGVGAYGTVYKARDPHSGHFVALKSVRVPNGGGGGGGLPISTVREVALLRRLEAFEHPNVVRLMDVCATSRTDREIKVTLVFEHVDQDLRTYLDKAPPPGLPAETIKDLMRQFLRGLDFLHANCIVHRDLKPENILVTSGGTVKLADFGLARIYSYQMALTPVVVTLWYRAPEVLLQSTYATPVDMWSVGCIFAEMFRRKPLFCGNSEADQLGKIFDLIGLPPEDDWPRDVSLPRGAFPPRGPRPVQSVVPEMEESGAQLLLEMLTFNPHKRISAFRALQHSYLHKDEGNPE
T3 sequence (P24385 whole entry partner, the tested form may be a part): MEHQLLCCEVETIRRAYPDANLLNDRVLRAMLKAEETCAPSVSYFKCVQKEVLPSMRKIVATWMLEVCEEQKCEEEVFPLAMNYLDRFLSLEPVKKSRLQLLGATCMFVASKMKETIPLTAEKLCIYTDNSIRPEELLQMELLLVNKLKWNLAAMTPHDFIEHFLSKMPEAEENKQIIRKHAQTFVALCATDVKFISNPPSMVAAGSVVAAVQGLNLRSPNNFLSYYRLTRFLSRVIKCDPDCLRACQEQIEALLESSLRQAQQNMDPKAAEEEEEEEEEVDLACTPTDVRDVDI
T1 sequence (P06493 whole entry, the tested form may be a part): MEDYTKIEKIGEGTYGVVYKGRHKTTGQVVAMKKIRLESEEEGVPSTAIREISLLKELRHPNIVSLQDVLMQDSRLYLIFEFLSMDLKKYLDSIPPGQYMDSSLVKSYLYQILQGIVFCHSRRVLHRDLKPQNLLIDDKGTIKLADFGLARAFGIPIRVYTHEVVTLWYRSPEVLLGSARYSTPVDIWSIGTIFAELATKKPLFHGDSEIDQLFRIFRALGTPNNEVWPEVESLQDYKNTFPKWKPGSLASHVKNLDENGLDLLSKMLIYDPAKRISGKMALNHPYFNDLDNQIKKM
T1 sequence (P14635 whole entry partner, the tested form may be a part): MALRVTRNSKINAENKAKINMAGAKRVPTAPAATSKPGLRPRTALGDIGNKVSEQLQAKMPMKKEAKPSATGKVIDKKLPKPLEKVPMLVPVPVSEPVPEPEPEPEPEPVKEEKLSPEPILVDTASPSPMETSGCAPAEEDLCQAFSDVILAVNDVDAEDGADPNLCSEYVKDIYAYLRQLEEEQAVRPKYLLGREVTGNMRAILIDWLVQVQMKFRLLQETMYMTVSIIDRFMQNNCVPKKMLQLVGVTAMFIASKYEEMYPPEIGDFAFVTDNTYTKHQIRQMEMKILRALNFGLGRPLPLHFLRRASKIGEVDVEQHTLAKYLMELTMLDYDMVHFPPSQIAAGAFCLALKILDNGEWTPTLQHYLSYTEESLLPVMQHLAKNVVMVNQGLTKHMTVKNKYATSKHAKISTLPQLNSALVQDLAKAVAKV

Compound | IC50 [1] [nM] | IC50 [2, 5] [nM] | IC50 [3] [nM] | IC50 ([4]; OVCAR-3, 1 h) [nM] | IC50 [4, 6] [nM] | IC50 [2, 7] [nM] | IC50 [4, 8] [nM]
COc1cc(O)c(C=O)c(-n2cc(CC(=O)Nc3cc([C@H]4CC[C@@H](OC(=O)NC(C)C)C4)[nH]n3)cn2)c1 [Compound 79, (1R,3S)-3-(5-{2-[1-(2-formyl-3-hydroxy-5-methoxyphenyl)pyrazol-4-yl]acetamido}-2H-pyrazol-3-yl) cyclopentyl N-isopropylcarbamate] | 47 | 14.2 | 727 | 505 |  |  | 
COc1ccc(OCC(=O)Nc2cc([C@H]3CC[C@@H](OC(=O)NC(C)C)C3)[nH]n2)c(C=O)c1O [Compound 80, (1R,3S)-3-{5-[2-(2-formyl-3-hydroxy-4-methoxyphenoxy)acetamido]-2H-pyrazol-3-yl}cyclopentyl N-isopropylcarbamate] | 37.3 | 25.4 | > 10000 |  | 132 |  | 
CCCNC(=O)O[C@@H]1CC[C@H](c2cc(NC(=O)COc3cccc(O)c3C=O)n[nH]2)C1 [Compound 81, (1R,3S)-3-{5-[2-(2-formyl-3-hydroxyphenoxy)acetamido]-2H-pyrazol-3-yl}cyclopentyl N-propylcarbamate; trifluoroacetic acid] | 18.8 | 2.3 | > 10000 |  | 119 |  | 
CC1(NC(=O)O[C@@H]2CC[C@H](c3cc(NC(=O)COc4cccc(O)c4C=O)n[nH]3)C2)CCC1 [Compound 83, (1R,3S)-3-{5-[2-(2-formyl-3-hydroxyphenoxy)acetamido]-2H-pyrazol-3-yl}cyclopentyl N-(1-methylcyclobutyl) carbamate; trifluoroacetic acid] | 6.23 | 4.75 | 2490 |  | 83.3 |  | 
CC(C)(C)NC(=O)O[C@@H]1CC[C@H](c2cc(NC(=O)COc3cccc(O)c3C=O)n[nH]2)C1 [Compound 84, (1R,3S)-3-(3-(2-(2-formyl-3-hydroxyphenoxy)acetamido)-1H-pyrazol-5-yl)cyclopentyl tert-butylcarbamate] | 15.1 | 5.93 | 5200 |  | 228 |  | 
O=Cc1c(O)cccc1OCC(=O)Nc1cc([C@H]2CC[C@@H](OC(=O)N3CCCC3)C2)[nH]n1 [Compound 85, (1R,3S)-3-{5-[2-(2-formyl-3-hydroxyphenoxy)acetamido]-2H-pyrazol-3-yl}cyclopentyl pyrrolidine-1-carboxylate] | 23.7 | 2.6 | > 10000 |  | 177 |  | 
O=Cc1c(O)cccc1OCC(=O)Nc1cc([C@H]2CC[C@@H](OC(=O)NC3CC3)C2)[nH]n1 [Compound 86, (1R,3S)-3-(3-(2-(2-formyl-3-hydroxyphenoxy)acetamido)-1H-pyrazol-5-yl)cyclopentyl cyclopropylcarbamate] | 32.5 | 3.73 | > 10000 |  | 212 |  | 
O=Cc1c(O)cccc1OCC(=O)Nc1cc([C@H]2CC[C@@H](OC(=O)NC3CCC3)C2)[nH]n1 [Compound 87, (1R,3S)-3-(3-(2-(2-formyl-3-hydroxyphenoxy)acetamido)-1H-pyrazol-5-yl)cyclopentyl cyclobutylcarbamate] | 24.3 | 2.77 | 9800 |  | 208 |  | 
O=Cc1c(O)cccc1OCC(=O)Nc1cc([C@H]2CC[C@@H](OC(=O)NC3CCCC3)C2)[nH]n1 [Compound 88, (1R,3S)-3-(3-(2-(2-formyl-3-hydroxyphenoxy)acetamido)-1H-pyrazol-5-yl)cyclopentyl cyclopentylcarbamate] | 42 | 3.47 | > 10000 |  | 227 |  | 
CC(C)NC(=O)O[C@@H]1CC[C@H](c2cc(NC(=O)C3CCN(c4cccc(O)c4C=O)CC3)n[nH]2)C1 [Compound 92, (1R,3S)-3-{5-[1-(2-formyl-3-hydroxyphenyl)piperidine-4-amido]-2H-pyrazol-3-yl}cyclopentyl N-isopropylcarbamate] | 278 | 16.3 | 3840 |  | 2400 |  | 
CC(C)NC(=O)O[C@@H]1CC[C@H](c2cc(NC(=O)C3CCN(c4cccc(O)c4C=O)C3)n[nH]2)C1 (stereo partly drawn) [Compound 93, (1R,3S)-3-{5-[1-(2-formyl-3-hydroxyphenyl)pyrrolidine-3-amido]-2H-pyrazol-3-yl}cyclopentyl N-isopropylcarbamate] | 169 | 8.52 | 2280 |  | 391 |  | 
COc1cccc(OCC(=O)Nc2cc([C@H]3CC[C@@H](OC(=O)NC(C)C)C3)[nH]n2)c1C=O [Compound 95, (1R,3S)-3-{5-[2-(2-formyl-3-methoxyphenoxy)acetamido]-2H-pyrazol-3-yl}cyclopentyl N-isopropylcarbamate; trifluoroacetic acid] | 21.5 | 1.26 | > 10000 |  | 115 |  | 
CC(C)NC(=O)O[C@@H]1CC[C@H](c2cc(NC(=O)CSc3cccc(O)c3C=O)n[nH]2)C1 [Compound 96, (1R,3S)-3-(5-{2-[(2-formyl-3-hydroxyphenyl)sulfanyl]acetamido}-2H-pyrazol-3-yl)cyclopentyl N-isopropylcarbamate; trifluoroacetic acid] | 129 | 7.13 | 1820 |  | 601 |  | 
CC(C)NC(=O)O[C@@H]1CC[C@H](c2cc(NC(=O)COc3cccc(Cl)c3C=O)n[nH]2)C1 [Compound 97, (1R,3S)-3-{5-[2-(3-chloro-2-formylphenoxy)acetamido]-2H-pyrazol-3-yl}cyclopentyl N-isopropylcarbamate] | 1140 | 8.75 | 9440 |  | 3020 |  | 
CC(C)NC(=O)O[C@@H]1CC[C@H](c2cc(NC(=O)COc3cccc(-c4nccs4)c3C=O)n[nH]2)C1 [Compound 98, (1R,3S)-3-(3-(2-(2-formyl-3-(thiazol-2-yl)phenoxy)acetamido)-1H-pyrazol-5-yl)cyclopentyl isopropylcarbamate] | 1490 | 12 | > 10000 |  | 3340 |  | 
C#Cc1cc(O)c(C=O)c(OCC(=O)Nc2cc([C@H]3CC[C@@H](OC(=O)NC(C)C)C3)[nH]n2)c1 [Compound 99, (1R,3S)-3-(3-(2-(5-ethynyl-2-formyl-3-hydroxyphenoxy)acetamido)-1H-pyrazol-5-yl)cyclopentyl isopropylcarbamate] | 21.4 | 3.14 | > 10000 |  | 259 |  | 
CC(C)NC(=O)O[C@@H]1CC[C@H](c2cc(NC(=O)COc3cc(OC(F)F)cc(O)c3C=O)n[nH]2)C1 [Compound 100, (1R,3S)-3-(5-{2-[5-(difluoromethoxy)-2-formyl-3-hydroxyphenoxy]acetamido}-2H-pyrazol-3-yl)cyclopentyl N-isopropylcarbamate] | 12.8 | 7.32 | 8710 |  | 120 |  | 
C[C@@H]1CCCN1C(=O)O[C@@H]1CC[C@H](c2cc(NC(=O)COc3cccc(O)c3C=O)n[nH]2)C1 [Compound 101, (1R,3S)-3-{5-[2-(2-formyl-3-hydroxyphenoxy)acetamido]-2H-pyrazol-3-yl}cyclopentyl (2R)-2-methylpyrrolidine-1-carboxylate; trifluoro-acetic acid] | 20.3 |  | 9200 |  |  | 5.79 | 188
C[C@H]1CCCN1C(=O)O[C@@H]1CC[C@H](c2cc(NC(=O)COc3cccc(O)c3C=O)n[nH]2)C1 [Compound 102, (S)-((1R,3S)-3-(3-(2-(2-formyl-3-hydroxyphenoxy)acetamido)-1H-pyrazol-5-yl)cyclopentyl) 2-methylpyrrolidine-1-carboxylate; trifluoroacetic acid] | 8.39 |  | 2860 |  |  | 4.16 | 78.2
COc1cccc(OCC(=O)Nc2cc([C@H]3CC[C@@H](OC(=O)NC4(C)CCC4)C3)[nH]n2)c1C=O [Compound 105, (1R,3S)-3-{5-[2-(2-formyl-3-methoxyphenoxy)acetamido]-2H-pyrazol-3-yl}cyclopentyl N-(1-methylcyclobutyl)carbamate; trifluoroacetic acid] | 2.18 | 1.01 | 2350 |  | 65.8 |  | 
COc1cccc(-c2cc(C(=O)Nc3cc([C@H]4CC[C@@H](OC(=O)NC(C)C)C4)[nH]n3)n(C)n2)c1C=O [Compound 106, (1R,3S)-3-{5-[5-(2-formyl-3-methoxyphenyl)-2-methylpyrazole-3-amido]-2H-pyrazol-3-yl}cyclopentyl N-isopropylcarbamate; trifluoroacetic acid] | 15.4 | 4.3 | 3330 |  | 306 |  | 
